In one data set the test system is primary neurons. Kind of data set: Neuronal cell death in the presence of NMDA. Type of data set: cell-based, mouse. To be noted: 1 or 10 μM compound, 100 μM NMDA. As to the method: Primary neurons were treated with 0.4, 1, 2, 10 or 50 μM of compound 2 or compound 22 (prepared according to Example 2). NSP5 was added to primary neurons at DIV11, and compound 2 or 22 was added 48 hours later. Cells were treated with propidium iodide 48 hours after compound addition. Cells were washed with PBS and fixed with 4% PFA. Cells were then washed and stained with DAPI. Images of cells were taken with ZEISS Axioscan 7 microscope slide scanner. Cell death was determined by Image J analysis, counting the death cell (red, PI)) vs all cells (blue, DAPI).
One hour after compound addition (1 or 10 μM of compound 2 or compound 22) neurons were treated with a cytotoxic agent (100 μM N-methyl-D-aspartate (NMDA), 100 μM H2O2 or 5 μM staurosporine). One hour after treatment with the cytotoxic agent, the media was replaced with fresh media and the neurons were incubated for 24 hours. A final concentration of 1 μM propidium iodide (PI) was added into the well and incubated for 5 mins. Cells were washed with phosphate-buffered saline (PBS) and then fixed with 4% PFA. Cells were then washed and stained with DAPI, and cell death determined as described above.

Data set [1] in a line: Adverse reactions in pharmacokinetic study. Conditions: 24-hour sampling period, IV 3 mg/kg and IP 10 mg/kg. The class given is in vivo, mouse. The procedure:
The pharmacokinetics of compound 22 was studied in non-fasted male C57BL/6 mice weighing 21.1-26.5 g. Mice had access to food and water ad libitum throughout the pre- and post-dose sampling period.
Compound 22 was dosed to mice by bolus injection into the lateral tail vein (2 mL/kg) for IV administration and by injection into the IP cavity (5 mL/kg) for IP administration. After dosing, blood samples were collected up to 24 h (n=3 mice per time point) with a maximum of three samples from each mouse via submandibular bleed (approximately 120 μL). No urine samples were collected as mice were housed in bedded cages. Blood was collected into polypropylene Eppendorf tubes containing heparin as anticoagulant. Once collected, blood samples were centrifuged immediately, supernatant plasma was removed, and stored at −80 °C until analysis by liquid chromatography-mass spectrometry (LC-MS). A summary of the bioanalytical method is included in Table 5.

The test system of data set [2] is PHP.B hSyn-NSP5-V5 adeno-associated virus. Kind of data set: Weight loss after AAV injection. Type of data set: in vivo, mouse. Conditions: 10 mg/kg daily, vs Paxlovid and vehicle; significant at day 19 to end. As to the method:
In vivo testing was performed on 5-month-old female C57BL/6 wildtype mice injected intravenously with PHP.B hSyn-NSP5-V5 adeno-associated virus (AAV) and treated daily with compound 22 (10 mg/kg), Paxlovid (nirmatrelvir/ritonavir) (10 mg/kg nirmatrelvir: 3.33 mg/kg ritonavir) or a vehicle control (n=10 per group).
Weight loss was monitored over a 21-day period post injection with the AAV.

For the molecule `NC(=O)C1CCN(c2ncccc2CNCc2cccc3[nH]ccc23)CC1` [Compound 22], the “Protection from NMDA-induced neurotoxicity” value in the data set with primary neurons is listed as “did not protect”. Also, in data set [1], the “Adverse reactions or compound-related side effects” value was “no adverse reactions or compound-related side effects observed”. Besides, the “Weight loss from 17 days post injection” value in data set [2] is “weight loss was less severe”.
